Measured values from US10889553B2, “Asymmetric triazole benzamide derivatives and the compositions and methods of treatment regarding the same” (NysnoBio Ireland DAC, priority 2017, dated 2021).
Where two headings read alike, the source gives them in different places.

What was measured:
A549 (lung) = assay: Cancer cell proliferation assay (acid phosphatase); assay type: cell-based; conditions: Homo sapiens
Outline: (§1)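 Cells seeded at 4×10^4 cells/ml were incubated overnight at 37° C., 5% CO2, then exposed to compound at varying concentrations in triplicate for 72 hrs. Proliferation was read by acid phosphatase assay (p-nitrophenol phosphate, pH 5.5, 2 hours, 405 nm minus 620 nm) as percent inhibition versus DMSO controls.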

HCT-116 (colon) = assay: Cancer cell proliferation assay (acid phosphatase); assay type: cell-based; conditions: Homo sapiens
Outline: as §1

[1] = Microsomal stability assay, rat liver microsomes; assay type: in vitro ADME; conditions: pH 7.4; rat liver microsomes 1.0 mg/mL, 1 μM compound, NADPH; read-out: RLM t1/2
Experimental: (§2) Compounds were also tested for metabolic stability in both rat liver microsomes (RLM) and the compounds are tested for human liver microsomes (HLM) and their half-life is calculated (See Tables 5A and 5B). The assay was performed as follows. The total volume for each incubation was 250 μL. A 100 μM DMSO solution of compound (diluted from 10 mM stock solution) was spiked into 50 mM KH2PO4 (pH 7.4) buffer containing liver microsome at a concentration of 1.0 mg/mL. The reaction was initiated by the addition of 50 μL of 1 mM NADPH. The final concentration of each compound was 1 μM (1% DMSO). The positive controls, phenacetin for CYP1A2, diclofenac for CYP2C9, omeprazole for CYP2C19, dextromethorphan for CYP2D6 and midazolam for CYP3A4 were added to a separate tube with the final substrate concentrations of 1 μM (1% DMSO) for evaluating the enzyme activities in the liver microsomes. At 0, 15, 30 and 60 min, an aliquot of 15 μL reaction mixtures were removed and 200 μL of methanol (with internal standard of 25 ng/mL propranolol) was added to quench the reaction. The resulting mixture was centrifuged and supernatant was used for LC-MS/MS analysis.
(§3) The signals for each compound, or the metabolites for the probe substrates and the internal standard were integrated and the peak area ratios to internal standard were generated. Percent parent remaining at a specified timepoint was calculated based on the peak area ratios at time 0 (as 100%) for in vitro metabolic stability studies in liver microsome and hepatocyte. The observed rate constant (kobs) for the metabolism of substrates was calculated by plotting the natural log of percentage substrate remaining versus time of incubation with the slope being kobs. The half-life (T1/2) was calculated according to the following equation: T1/2=[…]

LS-174T (colon) = assay: Cancer cell proliferation assay (acid phosphatase); assay type: cell-based; conditions: Homo sapiens, LS174T; Table 6A; 72 hrs
Outline: as §1

Calu-6 (lung) = assay: Cancer cell proliferation assay (acid phosphatase); assay type: cell-based; conditions: Homo sapiens, Table 6A, 72 hrs, read-out: Calu6 IC50
Outline: as §1

[2] = Microsomal stability assay, human liver microsomes; assay type: in vitro ADME; conditions: pH 7.4; human liver microsomes 1.0 mg/mL, 1 μM compound, NADPH; read-out: HLM t1/2
Experimental: as §2, §3

CYP2C19 = CYP2C19 (Homo sapiens, UniProt P33261); assay: CYP inhibition assay; assay type: in vitro ADME; conditions: read-out: % Inhibition at 30 μM CYP 2C19
5 major CYP enzymes = assay: CYP inhibition assay (all 5 enzymes); assay type: in vitro ADME; conditions: 30 μM, in words
mu (MOP) (h) = mu (MOP) (h) (Homo sapiens, UniProt P35372); assay: Selectivity screen, radioligand displacement; assay type: binding; conditions: read-out: % Inhib mu (MOP) (h)
Description: (§4) If the % inhibition is less than 50%, the test compounds is consider to have no effect.

[3] = biological target: N neuronal alpha 4beta 2 (h) (Homo sapiens, UniProt P17787+P43681); assay: Selectivity screen, radioligand displacement; assay type: binding; conditions: read-out: % Inhib N neuronal alpha 4beta 2 (h)
Description: as §4

5-HT1A (h) = 5-HT1A (h) (Homo sapiens, UniProt P08908); assay: Selectivity screen, radioligand displacement; assay type: binding; conditions: read-out: % Inhib 5-HT1A (h)
Description: as §4

V1a (h) = V1a (h) (Homo sapiens, UniProt P37288); assay: Selectivity screen, radioligand displacement; assay type: binding; conditions: read-out: % Inhib V1a (h)
Description: as §4

KV channel = assay: Selectivity screen, radioligand displacement; assay type: binding; conditions: Compound 42 at 10 μM
Description: as §4

NMDA = assay: Selectivity screen, radioligand displacement; assay type: binding; conditions: Compound 42 at 10 μM
Description: as §4

M3 (h) = M3 (h) (Homo sapiens, UniProt P20309); assay: Selectivity screen, radioligand displacement; assay type: binding; conditions: read-out: % Inhib M3 (h)
Description: as §4

M1 (h) = M1 (h) (Homo sapiens, UniProt P11229); assay: Selectivity screen, radioligand displacement; assay type: binding
Description: as §4

D2S (h) = D2S (h) (Homo sapiens, UniProt P14416); assay: Selectivity screen, radioligand displacement; assay type: binding; conditions: read-out: % Inhib D2S (h)
Description: as §4

NA+ Channel (Site2) = assay: Selectivity screen, radioligand displacement; assay type: binding; conditions: Compound 42 at 10 μM
Description: as §4

[4] = A549, 72 h, Table 6A, 72 hrs, read-out: A549 IC50
[5] = HCT-116, 72 h, Table 6A, 72 hrs, read-out: HCT-116 IC50

Sequence of V1a (h) (P37288 whole entry): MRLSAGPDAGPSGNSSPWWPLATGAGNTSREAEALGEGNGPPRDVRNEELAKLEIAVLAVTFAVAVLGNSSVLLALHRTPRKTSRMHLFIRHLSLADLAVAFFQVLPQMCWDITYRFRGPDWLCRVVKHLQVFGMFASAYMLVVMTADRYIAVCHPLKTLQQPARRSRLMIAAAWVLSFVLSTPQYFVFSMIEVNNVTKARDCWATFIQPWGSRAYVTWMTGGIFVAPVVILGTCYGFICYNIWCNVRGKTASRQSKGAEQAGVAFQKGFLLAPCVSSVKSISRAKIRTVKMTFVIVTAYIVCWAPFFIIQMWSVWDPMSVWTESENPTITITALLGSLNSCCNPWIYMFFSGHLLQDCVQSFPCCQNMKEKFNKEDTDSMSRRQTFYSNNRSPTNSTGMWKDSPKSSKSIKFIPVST
Sequence of M3 (h) (P20309 whole entry): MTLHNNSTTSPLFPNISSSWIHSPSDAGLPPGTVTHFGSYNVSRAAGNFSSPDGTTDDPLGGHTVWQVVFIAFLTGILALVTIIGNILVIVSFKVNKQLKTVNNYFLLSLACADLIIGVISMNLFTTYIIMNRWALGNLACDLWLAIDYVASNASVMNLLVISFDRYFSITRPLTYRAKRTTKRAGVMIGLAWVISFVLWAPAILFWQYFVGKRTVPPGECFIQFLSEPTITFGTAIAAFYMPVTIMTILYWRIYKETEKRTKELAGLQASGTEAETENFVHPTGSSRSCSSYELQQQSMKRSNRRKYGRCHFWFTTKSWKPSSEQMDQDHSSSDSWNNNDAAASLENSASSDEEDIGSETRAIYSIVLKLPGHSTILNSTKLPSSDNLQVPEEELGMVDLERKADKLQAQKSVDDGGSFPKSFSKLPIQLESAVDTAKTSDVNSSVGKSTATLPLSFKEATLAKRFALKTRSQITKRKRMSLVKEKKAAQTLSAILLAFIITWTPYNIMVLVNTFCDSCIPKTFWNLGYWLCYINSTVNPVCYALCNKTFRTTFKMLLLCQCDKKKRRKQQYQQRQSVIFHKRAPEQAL
Sequence of N neuronal alpha 4beta 2 (h) (P43681 29-627 limits assumed): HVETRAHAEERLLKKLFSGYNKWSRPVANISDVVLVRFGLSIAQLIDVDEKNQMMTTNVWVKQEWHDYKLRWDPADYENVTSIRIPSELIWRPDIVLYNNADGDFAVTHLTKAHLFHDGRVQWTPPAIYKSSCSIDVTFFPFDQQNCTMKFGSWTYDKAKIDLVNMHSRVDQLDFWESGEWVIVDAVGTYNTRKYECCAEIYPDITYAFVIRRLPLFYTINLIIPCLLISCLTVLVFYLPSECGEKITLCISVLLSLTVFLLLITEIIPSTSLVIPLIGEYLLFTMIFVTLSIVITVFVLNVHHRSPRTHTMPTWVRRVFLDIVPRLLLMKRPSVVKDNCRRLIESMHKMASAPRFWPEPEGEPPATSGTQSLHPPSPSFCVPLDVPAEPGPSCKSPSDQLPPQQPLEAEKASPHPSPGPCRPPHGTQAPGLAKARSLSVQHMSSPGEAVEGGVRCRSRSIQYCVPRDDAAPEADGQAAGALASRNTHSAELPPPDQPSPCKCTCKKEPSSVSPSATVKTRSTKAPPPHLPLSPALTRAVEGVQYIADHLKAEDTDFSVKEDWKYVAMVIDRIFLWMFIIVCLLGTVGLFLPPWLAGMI
Sequence of N neuronal alpha 4beta 2 (h) (P17787 26-502): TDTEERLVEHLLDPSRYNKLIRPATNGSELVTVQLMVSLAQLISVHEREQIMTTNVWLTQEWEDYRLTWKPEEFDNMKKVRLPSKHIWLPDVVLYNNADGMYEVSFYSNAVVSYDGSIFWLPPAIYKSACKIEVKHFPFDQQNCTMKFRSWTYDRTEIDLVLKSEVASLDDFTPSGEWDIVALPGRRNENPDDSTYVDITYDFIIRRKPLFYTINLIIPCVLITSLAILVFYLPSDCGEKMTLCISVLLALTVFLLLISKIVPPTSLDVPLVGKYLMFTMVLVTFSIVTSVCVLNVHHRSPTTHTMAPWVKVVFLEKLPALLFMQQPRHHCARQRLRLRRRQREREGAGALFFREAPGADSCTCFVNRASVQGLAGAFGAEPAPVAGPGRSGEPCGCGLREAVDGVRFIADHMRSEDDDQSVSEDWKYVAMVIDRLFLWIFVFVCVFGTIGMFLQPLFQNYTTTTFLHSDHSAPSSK
Sequence of mu (MOP) (h) (P35372 whole entry): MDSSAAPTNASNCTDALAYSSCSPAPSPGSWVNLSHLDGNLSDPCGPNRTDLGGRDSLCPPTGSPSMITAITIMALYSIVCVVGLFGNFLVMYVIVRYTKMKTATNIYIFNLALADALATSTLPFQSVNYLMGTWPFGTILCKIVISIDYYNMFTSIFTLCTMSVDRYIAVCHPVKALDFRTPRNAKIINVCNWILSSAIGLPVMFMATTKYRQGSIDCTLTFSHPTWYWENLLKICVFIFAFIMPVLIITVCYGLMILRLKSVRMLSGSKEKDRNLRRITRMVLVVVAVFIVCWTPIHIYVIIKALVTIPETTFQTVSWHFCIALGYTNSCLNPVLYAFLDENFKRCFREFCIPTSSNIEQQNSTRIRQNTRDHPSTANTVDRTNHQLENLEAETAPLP
Sequence of D2S (h) (P14416 1-414 isoform P14416-2): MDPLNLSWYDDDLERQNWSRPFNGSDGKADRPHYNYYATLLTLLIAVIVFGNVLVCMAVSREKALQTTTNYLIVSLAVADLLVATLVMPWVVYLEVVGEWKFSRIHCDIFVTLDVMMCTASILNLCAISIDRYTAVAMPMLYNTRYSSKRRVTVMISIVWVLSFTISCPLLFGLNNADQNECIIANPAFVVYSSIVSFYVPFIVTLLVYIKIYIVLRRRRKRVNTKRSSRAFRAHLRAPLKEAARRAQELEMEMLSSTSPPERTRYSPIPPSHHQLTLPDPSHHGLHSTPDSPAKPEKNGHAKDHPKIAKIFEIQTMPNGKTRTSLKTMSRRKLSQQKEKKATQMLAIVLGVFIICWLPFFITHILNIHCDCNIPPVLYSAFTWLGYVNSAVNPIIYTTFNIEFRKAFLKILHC
Sequence of CYP2C19 (P33261 whole entry): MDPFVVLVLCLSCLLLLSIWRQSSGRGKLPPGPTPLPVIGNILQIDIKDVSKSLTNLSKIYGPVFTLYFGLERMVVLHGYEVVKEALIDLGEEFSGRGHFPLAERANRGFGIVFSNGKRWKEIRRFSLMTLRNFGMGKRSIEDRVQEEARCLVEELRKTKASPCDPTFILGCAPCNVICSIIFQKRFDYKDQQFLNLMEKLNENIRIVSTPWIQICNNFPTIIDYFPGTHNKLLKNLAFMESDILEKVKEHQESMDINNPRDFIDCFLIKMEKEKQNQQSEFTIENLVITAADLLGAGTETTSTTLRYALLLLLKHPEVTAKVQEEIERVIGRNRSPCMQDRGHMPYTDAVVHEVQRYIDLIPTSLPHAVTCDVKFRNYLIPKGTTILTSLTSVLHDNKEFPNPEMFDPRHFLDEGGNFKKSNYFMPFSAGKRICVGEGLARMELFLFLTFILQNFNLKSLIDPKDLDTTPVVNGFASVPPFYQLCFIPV
Sequence of M1 (h) (P11229 whole entry): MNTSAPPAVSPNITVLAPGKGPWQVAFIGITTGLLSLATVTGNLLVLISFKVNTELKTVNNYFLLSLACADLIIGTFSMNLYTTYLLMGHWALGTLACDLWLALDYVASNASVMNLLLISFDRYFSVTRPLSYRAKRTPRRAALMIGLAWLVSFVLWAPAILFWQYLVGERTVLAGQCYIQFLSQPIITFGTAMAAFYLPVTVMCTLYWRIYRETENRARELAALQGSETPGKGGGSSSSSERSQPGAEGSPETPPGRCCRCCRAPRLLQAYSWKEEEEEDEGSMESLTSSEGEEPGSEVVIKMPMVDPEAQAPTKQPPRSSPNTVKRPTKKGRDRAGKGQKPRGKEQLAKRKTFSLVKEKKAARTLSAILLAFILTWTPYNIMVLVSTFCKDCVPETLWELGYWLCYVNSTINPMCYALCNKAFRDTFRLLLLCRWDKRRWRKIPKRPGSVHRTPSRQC
Sequence of 5-HT1A (h) (P08908 whole entry): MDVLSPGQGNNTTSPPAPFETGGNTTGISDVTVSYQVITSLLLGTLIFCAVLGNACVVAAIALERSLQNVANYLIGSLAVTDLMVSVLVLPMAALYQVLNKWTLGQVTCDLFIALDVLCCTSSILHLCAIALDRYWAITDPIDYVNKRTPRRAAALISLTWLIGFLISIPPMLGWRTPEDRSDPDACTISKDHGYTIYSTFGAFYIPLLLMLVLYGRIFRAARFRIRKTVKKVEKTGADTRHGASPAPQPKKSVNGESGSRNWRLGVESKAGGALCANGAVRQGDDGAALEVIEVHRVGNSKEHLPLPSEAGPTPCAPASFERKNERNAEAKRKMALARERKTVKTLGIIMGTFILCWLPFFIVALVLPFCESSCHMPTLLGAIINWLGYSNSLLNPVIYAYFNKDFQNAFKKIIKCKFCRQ

| IC50 (A549 (lung); [4]) | half-life at 1 μM [1] | IC50 (LS-174T (colon)) | IC50 (Calu-6 (lung)) | Structure (SMILES) | other results |
| --- | --- | --- | --- | --- | --- |
| 2.2 µM | 0.683 h |  |  | C#Cc1ccc(C(=O)Nc2nc(NC(=O)c3cccc(N=[N+]=[N-])c3)n(-c3ccccc3)n2)cc1 [Compound 2] | IC50 (HCT-116 (colon); [5]): 642 µM |
|  | 0.0833 h |  |  | Cc1ccccc1C(=O)Nc1nc(NC(=O)c2cccnc2)nn1-c1ccccc1 [Compound 6] |  |
|  | 3.98 h |  |  | Cc1ccccc1C(=O)Nc1nc(NC(=O)c2ccno2)n(-c2ccccc2)n1 [Compound 7] |  |
| 2.6 µM | 2.35 h |  |  | Cc1ccccc1C(=O)Nc1nc(NC(=O)c2ccccn2)nn1-c1ccccc1 [Compound 16] |  |
|  | 0.433 h |  |  | Cc1ccccc1C(=O)Nc1nc(NC(=O)c2cnccn2)n(-c2ccccc2)n1 [Compound 17] |  |
|  | 2.45 h | > 1 µM |  | Cc1ccccc1C(=O)Nc1nc(NC(=O)C2CCCN2)nn1-c1ccccc1 (stereo not shown) [Compound 20] |  |
| 2.5 µM | 0.1 h | > 2.5 µM | > 2.5 µM | Cc1ccc(C(=O)Nc2nc(NC(=O)c3ccc(C)cc3)n(-c3ccccc3)n2)cc1 [Compound 21] |  |
| > 2.5 µM | 0.35 h | > 2.5 µM | > 2.5 µM | COc1ccccc1C(=O)Nc1nc(NC(=O)c2ccccc2OC)n(-c2ccccc2)n1 [Compound 23] |  |
| 0.28 µM | 2.18 h | 0.94 µM | 0.29 µM | Cc1ccccc1C(=O)Nc1nc(NC(=O)c2ccccc2C)n(-c2ccc(F)c(F)c2)n1 [Compound 24] | half-life at 1 μM [2]: 3.4 h |
| 0.04 µM | 6.8 h | < 0.2 µM | 0.43 µM | Cc1ccccc1C(=O)Nc1nc(NC(=O)c2ccccc2C)n(-c2ccc(C(F)(F)F)cc2)n1 [Compound 25] | half-life at 1 μM [2]: 1.18 h; IC50 (HCT-116 (colon); [5]): 0.12 µM |
| 2.5 µM | 0.967 h | > 1 µM |  | Cc1ccccc1C(=O)Nc1nc(NC(=O)c2ccccc2C)n(-c2ccccc2Cl)n1 [Compound 26] |  |
| 2.5 µM | 0.233 h | > 2.5 µM |  | Cc1ccc(-n2nc(NC(=O)c3ccccc3C)nc2NC(=O)c2ccccc2C)cc1 [Compound 31] |  |
| > 2.5 µM | 3.4 h | > 2.5 µM |  | Cc1ccccc1C(=O)Nc1nc(NC(=O)c2ccccc2C)n(-c2ccccc2F)n1 [Compound 32] |  |
| > 2.5 µM | 3.3 h |  |  | O=C(Nc1nc(NC(=O)c2ccncc2)n(-c2ccccc2)n1)c1ccncc1 [Compound 33] |  |
| 2.5 µM | 5.5 h | 2.6 µM |  | Cc1ccccc1C(=O)Nc1nc(NC(=O)c2ccncc2)nn1-c1ccccc1 [Compound 34] |  |
| 2.4 µM | 3.3 h | 2.3 µM |  | Cc1ccccc1C(=O)Nc1nc(NC(=O)c2ccccc2C)n(-c2ccc(C#N)cc2)n1 [Compound 35] |  |
| 0.22 µM | 1.05 h | 1.3 µM | 0.17 µM | Cc1ccccc1C(=O)Nc1nc(NC(=O)c2ccccc2C)n(-c2cccc(Cl)c2)n1 [Compound 36] | half-life at 1 μM [2]: 2.45 h |
| 2.3 µM | 0.35 h | 2.4 µM |  | COc1ccc(C(=O)Nc2nc(NC(=O)c3ccc(OC)cc3)n(-c3ccccc3)n2)cc1 [Compound 37] |  |
| 2.1 µM | 0.433 h | 2.3 µM | 2.6 µM | Cc1cccc(-n2nc(NC(=O)c3ccccc3C)nc2NC(=O)c2ccccc2C)c1 [Compound 38] |  |
| 1.2 µM | 2.22 h | 2.1 µM | 2.5 µM | Cc1ccccc1C(=O)Nc1nc(NC(=O)c2ccccc2C)n(-c2cccc(F)c2)n1 [Compound 39] |  |
|  | > 8.33 h | > 2.5 µM |  | O=C(Nc1nc(NC(=O)c2cccnc2)n(-c2ccccc2)n1)c1cccnc1 [Compound 40] |  |
| 2.5 µM | 0.283 h | 2.5 µM |  | O=C(Nc1nc(NC(=O)c2ccccn2)n(-c2ccccc2)n1)c1ccccn1 [Compound 41] |  |
| 2 µM | 0.1 h | 2.5 µM | > 2.5 µM | Cc1ccccc1C(=O)Nc1nc(NC(=O)c2ccccc2C)n(-c2ccc(N3CCCCC3)cc2)n1 [Compound 44] |  |
| 2.5 µM | 1.62 h | 2.5 µM |  | Cc1ccccc1C(=O)Nc1nc(NC(=O)c2ccccc2C)n(-c2ccc(F)cc2F)n1 [Compound 46] |  |
| > 2.5 µM | 0.167 h |  |  | Cc1ccccc1C(=O)Nc1nc(NCc2ccccc2)nn1-c1ccc(C(F)(F)F)cc1 [Compound 102] | IC50 (HCT-116 (colon); [5]): 2.5 µM |
| 1.2 µM | 0.717 h |  | 1.4 µM | Cc1ccnc(-c2nc(NC(=O)c3ccccc3C)n(-c3ccccc3)n2)c1 [Compound 124] |  |

| Structure (SMILES) | IC50 (A549 (lung); [4]) | half-life at 1 μM [1] | IC50 (LS-174T (colon)) | IC50 (Calu-6 (lung)) | other results |
| --- | --- | --- | --- | --- | --- |
| Cc1ccccc1C(=O)Nc1nc(NC(=O)c2ccccc2C)n(-c2ccc(OC(F)(F)F)cc2)n1 [Compound 42, N,N′-(1-(4-(trifluoromethoxy)phenyl)-1H-1,2,4-triazole-3,5-diyl)bis(2-methylbenzamide)] |  | 3.85 h | 0.2 µM | 0.06 µM | inhibition at 30 μM (CYP2C19): 60.5%; half-life at 1 μM [2]: > 8.33 h; CYP inhibition activity for the 5 major CYP enzymes (5 major CYP enzymes): no significant CYP inhibition activity; inhibition at 10 µM (mu (MOP) (h)): 6%; inhibition at 10 µM [3]: < 1%; inhibition at 10 µM (5-HT1A (h)): 10%; inhibition at 10 µM (V1a (h)): 5%; % Inhib KV channel (KV channel): 1%; % Inhib NMDA (NMDA): 8%; inhibition at 10 µM (M3 (h)): < 1%; inhibition at 10 µM (M1 (h)): 4%; inhibition at 10 µM (D2S (h)): < 1%; % Inhib NA+ Channel (Site2) (NA+ Channel (Site2)): 43%; IC50 (A549 (lung); A549, Table 6A, 72 hrs, read-out: A549 IC50): 0.03 µM; IC50 (A549 (lung); A549, Table 6C, data of FIG. 2, read-out: IC50 (μM) A549 (lung)): 65 µM; EC50 (A549 (lung); A549, Table 6D, another set of cell proliferation assay): 72 nM; IC50 (HCT-116 (colon); HCT-116, Table 6A, 72 hrs, read-out: HCT-116 IC50): 0.07 µM; IC50 (HCT-116 (colon); HCT-116, Table 6C, data of FIG. 2, read-out: IC50 (μM) HCT-116 (colon)): 0.08 µM; EC50 (HCT-116 (colon); HCT-116, Table 6D, another set of cell proliferation assay): 87 nM; IC50 (HCT-116 (colon); HCT-116, Table 6E, read-out: Proliferation IC50 (nM) CRC HCT-116): 0.087 µM |
